According to PMC4252478 (Biochemical pharmacology, 2014):
Changes are numbered by the printed parent chain.

Experiments:
[1] = tested on: HepG2, LS180, and LS174T cells; assay: Cell viability assay; type: cell-based, human; settings: 1.7 nM to 56 μM
[2] = molecular target: hPXR and SRC-1 interaction (Homo sapiens, UniProt O75469); assay: Mammalian two-hybrid assay in HepG2 cells; type: cell-based; settings: 24 h, 5 μM rifampicin, 5, 10 or 20 μM MET
[3] = tested on: CYP3A4 and MDR1 expression; assay: CYP3A4 and MDR1 expression in human primary hepatocytes; type: cell-based; settings: 48-h treatment, two donors
[4] = tested on: CYP3A4 and MDR1 expression; assay: CYP3A4 and MDR1 expression in LS180 and LS174T intestine cells; type: cell-based, human; settings: Western blot
[5] = molecular target: T1, hPXR ligand-binding domain (Homo sapiens, UniProt O75469); assay: LanthaScreen TR-FRET PXR competitive ligand-binding assay; settings: 1.75 μM, compared with vehicle control
T1 sequence (O75469 146-433 limits assumed): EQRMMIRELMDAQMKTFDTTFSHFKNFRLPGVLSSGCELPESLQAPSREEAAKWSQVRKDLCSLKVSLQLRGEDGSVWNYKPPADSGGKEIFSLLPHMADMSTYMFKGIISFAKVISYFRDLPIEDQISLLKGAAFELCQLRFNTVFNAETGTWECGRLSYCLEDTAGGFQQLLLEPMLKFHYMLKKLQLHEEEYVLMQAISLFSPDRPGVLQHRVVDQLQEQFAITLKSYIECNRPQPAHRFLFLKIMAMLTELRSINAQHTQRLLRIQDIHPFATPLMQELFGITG

[6] = molecular target: T2, wild-type hPXR (CYP3A4 promoter) (Homo sapiens, UniProt O75469); assay: CYP3A4 promoter luciferase reporter assay in HepG2 cells, wild-type hPXR; type: cell-based; settings: human
T2 sequence (O75469 1-434): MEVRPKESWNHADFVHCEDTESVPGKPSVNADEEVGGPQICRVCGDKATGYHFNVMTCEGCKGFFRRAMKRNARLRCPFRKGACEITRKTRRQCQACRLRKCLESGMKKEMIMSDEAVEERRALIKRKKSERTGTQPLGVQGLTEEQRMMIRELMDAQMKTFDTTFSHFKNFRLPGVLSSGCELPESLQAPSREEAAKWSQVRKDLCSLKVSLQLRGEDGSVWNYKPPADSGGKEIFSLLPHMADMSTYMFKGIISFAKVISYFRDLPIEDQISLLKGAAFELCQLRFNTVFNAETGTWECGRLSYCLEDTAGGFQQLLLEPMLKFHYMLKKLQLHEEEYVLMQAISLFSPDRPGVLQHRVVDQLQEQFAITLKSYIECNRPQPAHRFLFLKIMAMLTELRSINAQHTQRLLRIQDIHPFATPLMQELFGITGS

wild-type hPXR = molecular target: T3, wild-type hPXR (Homo sapiens, UniProt O75469); assay: as above; type: cell-based; settings: HepG2, 24 h, relative luciferase units (a.u.), DMSO 0.40
T3 sequence (O75469 1-434): T2 sequence (O75469 1-434)

hPXR R410A = molecular target: T4, hPXR R410A (Homo sapiens, UniProt O75469, R410A); assay: CYP3A4 promoter luciferase reporter assay in HepG2 cells, hPXR mutant R410A; type: cell-based; settings: HepG2, 24 h, relative luciferase units (a.u.), DMSO 3.28
T4 sequence (O75469 1-434 R410A): T2 sequence (O75469 1-434) with R410A

[7] = molecular target: T5, hPXR R410A mutant (CYP3A4 promoter) (Homo sapiens, UniProt O75469, R410A); assay: as above; type: cell-based; settings: human
T5 sequence (O75469 1-434 R410A): T2 sequence (O75469 1-434) with R410A

hPXR mutants = type: cell-based, human; settings: 21 alanine mutants, various MET concentrations, HepG2
hPXR [8] = molecular target: T6, hPXR (Homo sapiens, UniProt O75469); settings: HEK293T cells, 24 h; for PXR activation in the screen: 28 μM
T6 sequence (O75469 1-434): T2 sequence (O75469 1-434)

[9] = tested on: human carbonic anhydrase isoforms I and III; settings: ref [31]; cited from earlier work
[10] = tested on: human carbonic anhydrase isoforms VII, XII, and XIII; settings: ref [31]; cited from earlier work
hPXR [11] = molecular target: T6, hPXR; assay: CYP3A4 promoter luciferase reporter assay in HepG2 cells; settings: HepG2, LS180 and LS174T cells, 24 h

Sequence of hPXR and SRC-1 interaction (Q15788 whole entry partner, one chain of several): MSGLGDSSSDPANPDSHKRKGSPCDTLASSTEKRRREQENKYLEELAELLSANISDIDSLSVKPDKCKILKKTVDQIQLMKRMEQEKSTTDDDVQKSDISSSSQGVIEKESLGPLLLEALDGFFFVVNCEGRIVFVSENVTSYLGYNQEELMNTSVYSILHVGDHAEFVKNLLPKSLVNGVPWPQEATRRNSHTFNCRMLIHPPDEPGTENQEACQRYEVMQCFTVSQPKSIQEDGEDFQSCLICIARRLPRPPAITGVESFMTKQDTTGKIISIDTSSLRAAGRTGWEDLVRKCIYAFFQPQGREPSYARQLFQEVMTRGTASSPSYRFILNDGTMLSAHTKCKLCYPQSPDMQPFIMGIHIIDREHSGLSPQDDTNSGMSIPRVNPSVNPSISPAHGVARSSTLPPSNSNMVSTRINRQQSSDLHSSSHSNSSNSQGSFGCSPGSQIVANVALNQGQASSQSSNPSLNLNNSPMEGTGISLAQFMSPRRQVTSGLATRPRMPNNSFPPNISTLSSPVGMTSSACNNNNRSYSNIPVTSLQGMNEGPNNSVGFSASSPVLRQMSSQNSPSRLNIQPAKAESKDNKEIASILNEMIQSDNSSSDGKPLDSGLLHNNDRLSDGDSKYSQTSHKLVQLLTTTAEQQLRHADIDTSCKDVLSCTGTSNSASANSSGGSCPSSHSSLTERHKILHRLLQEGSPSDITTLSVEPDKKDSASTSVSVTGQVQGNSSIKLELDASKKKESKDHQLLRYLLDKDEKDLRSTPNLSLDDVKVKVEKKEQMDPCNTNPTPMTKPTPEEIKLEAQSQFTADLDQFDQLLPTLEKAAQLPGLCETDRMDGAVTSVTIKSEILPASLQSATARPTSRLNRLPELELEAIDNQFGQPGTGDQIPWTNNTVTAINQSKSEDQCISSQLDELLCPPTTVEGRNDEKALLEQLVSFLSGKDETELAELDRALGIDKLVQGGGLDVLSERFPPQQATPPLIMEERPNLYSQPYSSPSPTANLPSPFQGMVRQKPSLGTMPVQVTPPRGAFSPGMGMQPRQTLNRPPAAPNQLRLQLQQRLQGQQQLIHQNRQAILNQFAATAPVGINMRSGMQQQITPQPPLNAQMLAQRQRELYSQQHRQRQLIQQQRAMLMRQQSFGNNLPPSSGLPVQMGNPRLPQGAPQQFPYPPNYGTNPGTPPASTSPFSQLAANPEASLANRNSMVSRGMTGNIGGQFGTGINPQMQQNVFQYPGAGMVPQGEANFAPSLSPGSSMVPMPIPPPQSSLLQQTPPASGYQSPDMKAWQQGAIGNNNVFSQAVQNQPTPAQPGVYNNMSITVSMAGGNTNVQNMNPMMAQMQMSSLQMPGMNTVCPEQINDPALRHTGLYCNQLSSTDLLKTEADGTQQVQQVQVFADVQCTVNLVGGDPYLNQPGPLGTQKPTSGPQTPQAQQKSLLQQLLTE

SMILES: Cc1ccccc1N1C(=O)c2cc(S(N)(=O)=O)c(Cl)cc2NC1C (centres unmarked) [Metolazone]
- cytotoxicity [1]: not significantly cytotoxic even at high concentration
- interaction between hPXR and SRC-1 [2]: substantially increased the interaction between hPXR and SRC-1
- expression of CYP3A4 and MDR1 mRNA and protein [3]: induced the expression of CYP3A4 and MDR1 mRNA and protein
- CYP3A4 and MDR1 protein expression [4]: induced CYP3A4 and MDR1 protein expression
- tracer binding to hPXR-LBD [5]: decreased tracer binding to hPXR-LBD substantially
- fold induction at 24 h, 10 μM [6]: 9.83
- fold induction at 24 h, 20 μM [6]: 10.6
- CYP3A4 promoter activity (wild-type hPXR; 10 μM MET): 3.93
- CYP3A4 promoter activity (wild-type hPXR; 20 μM MET): 4.22
- CYP3A4 promoter activity (hPXR R410A; 10 μM MET): 6.43
- CYP3A4 promoter activity (hPXR R410A; 20 μM MET): 4.92
- fold induction at 24 h, 10 μM [7]: 1.96
- fold induction at 24 h, 20 μM [7]: 1.5
- CYP3A4 promoter activity with hPXR mutants (hPXR mutants): increased CYP3A4 promoter activity substantially for all PXR mutants except L240A, F281A, and F420A
- activation of the CYP3A4-luc reporter (hPXR [8]; final compound concentration 28 μM, DMSO set as 0% and rifampicin at 5 μM set as 100%): 182%
- inhibition of carbonic anhydrase [9]: weak inhibitor
- inhibition of carbonic anhydrase [10]: very potent
- activation of PXR-regulated CYP3A4 promoter activity (hPXR [11]): activator of PXR activity

SMILES: NS(=O)(=O)c1cc2c(cc1C(F)(F)F)NC(Cc1ccccc1)NS2(=O)=O (centres unmarked) [bendroflumethiazide]
- activation of PXR-regulated CYP3A4 promoter activity (hPXR [11]): inactive

SMILES: NS(=O)(=O)c1cc2c(cc1Cl)N=C(CSCc1ccccc1)NS2(=O)=O [benzthiazide]
- activation of PXR-regulated CYP3A4 promoter activity (hPXR [11]): inactive

SMILES: NS(=O)(=O)c1cc2c(cc1Cl)NC(C1CC3C=CC1C3)NS2(=O)=O (centres unmarked) [cyclothiazide]
- activation of PXR-regulated CYP3A4 promoter activity (hPXR [11]): does not activate PXR

SMILES: O=C1Nc2ccc(Cl)cc2[C@@](C#CC2CC2)(C(F)(F)F)O1 [efavirenz]
- PXR activation in the screen (hPXR [8]): PXR activation

SMILES: NS(=O)(=O)c1cc2c(cc1Cl)NCNS2(=O)=O [hydrochlorothiazide]
- activation of PXR-regulated CYP3A4 promoter activity (hPXR [11]): inactive

SMILES: CC(C)(O)c1ccccc1CC[C@@H](SCC1(CC(=O)O)CC1)c1cccc(/C=C/c2ccc3ccc(Cl)cc3n2)c1 [montelukast]
- PXR activation in the screen (hPXR [8]): PXR activation

SMILES: CCCCC1C(=O)N(c2ccccc2)N(c2ccccc2)C1=O [phenylbutazone]
- PXR activation in the screen (hPXR [8]): PXR activation

SMILES: Cc1cccc(C)c1NC(=O)c1cc(S(N)(=O)=O)c(Cl)cc1O [xipamide]
- activation of PXR-regulated CYP3A4 promoter activity (hPXR [11]): does not possess PXR-activating activity
